In test [1] the target is 5-hydroxytryptamine receptor 5A (Rattus norvegicus, UniProt P35364).
The target in test [2] is 5-hydroxytryptamine receptor 5B (Rattus norvegicus, UniProt P35365).

Drawing on BindingDB's records for doi:10.1073/pnas.90.8.3452 (The Scripps Research Institute, 1993), this text covers Ki for 12 compounds.

Chain of 5-hydroxytryptamine receptor 5B (P35365 whole entry): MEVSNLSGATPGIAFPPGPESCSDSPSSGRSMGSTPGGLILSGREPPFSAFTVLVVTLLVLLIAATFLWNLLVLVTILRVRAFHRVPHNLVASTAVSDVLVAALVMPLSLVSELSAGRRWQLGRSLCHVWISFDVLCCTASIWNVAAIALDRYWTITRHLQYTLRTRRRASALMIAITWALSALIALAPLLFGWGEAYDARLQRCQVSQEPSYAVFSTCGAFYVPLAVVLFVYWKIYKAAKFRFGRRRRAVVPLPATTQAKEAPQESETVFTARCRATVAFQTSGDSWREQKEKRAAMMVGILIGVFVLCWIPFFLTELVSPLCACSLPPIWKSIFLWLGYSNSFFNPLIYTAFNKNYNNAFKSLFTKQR
Chain of 5-hydroxytryptamine receptor 5A (P35364 whole entry): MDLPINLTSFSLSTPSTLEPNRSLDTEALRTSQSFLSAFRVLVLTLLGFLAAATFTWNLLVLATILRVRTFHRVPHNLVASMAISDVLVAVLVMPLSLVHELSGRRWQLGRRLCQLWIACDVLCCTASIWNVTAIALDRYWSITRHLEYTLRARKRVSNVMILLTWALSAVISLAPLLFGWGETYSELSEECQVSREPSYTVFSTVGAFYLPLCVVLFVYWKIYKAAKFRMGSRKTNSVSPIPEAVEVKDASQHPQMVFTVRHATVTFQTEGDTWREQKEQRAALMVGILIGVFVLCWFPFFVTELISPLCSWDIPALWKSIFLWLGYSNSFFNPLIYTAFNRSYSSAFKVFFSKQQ

`NCCc1c[nH]c2ccc(O)cc12` [[3H]-5-HT]: in test [1], the inhibition constant (Ki) was 1.33 µM. That is a single-digit micromolar value.
In the case of `CC[C@@H](CO)NC(=O)[C@@H]1C=C2c3cccc4c3c(cn4C)C[C@H]2N(C)C1`, the Ki in test [2] is 0.196 µM; in test [1] it was 1 µM.
For `COc1cc(N)c(Cl)cc1C(=O)NC1CN2CCC1CC2` (stereo unspecified) [ZACOPRIDE,R] the same measures were 1 µM and 1 µM.
For `CCCN(CCC)C1CCc2cccc(O)c2C1` (stereo unspecified) the same measures were 1 µM and 1 µM.
For `COc1ccc2[nH]cc(CCNC(C)=O)c2c1` the same measures were 1 µM and 1 µM.
Turning to `NCC(O)c1ccc(O)c(O)c1` (stereo not drawn) [Noradrenaline,(+)], the Ki in test [2] and in test [1] was 1 µM in each case.
Consider `CSc1ccc2c(c1)C(N1CCN(C)CC1)Cc1ccccc1S2` (stereo unspecified) [methanesulfonic acid;1-methyl-4-(3-methylsulfanyl-5,6-dihydrobenzo[b][1]benzothiepin-5-yl)piperazine], for which, in test [1], the Ki worked out at 0.145 µM.
Turning to `NCCc1c[nH]c2ccc(C(N)=O)cc12` [[3H]-5-carboxamidotryptamine], the inhibition constant Ki in test [2] was determined as 0.0126 µM.
As for `CN1C[C@H](CNC(=O)OCc2ccccc2)C[C@@H]2c3cccc4c3c(cn4C)C[C@H]21` [METERGOLINE], the Ki in test [2] and in test [1] was 1 µM in each case.
On to `COc1cc(CC(C)N)c(OC)cc1I` (stereo unspecified) [[125I]2,5-dimethoxy-4-iodoamphetamine], for which the Ki in test [2] and in test [1] was 1 µM throughout.
For `NCCc1ccc(O)c(O)c1`, the Ki in test [2] and in test [1] was 1 µM each time.
Consider `CN1C[C@@H](NS(=O)(=O)N(C)C)C[C@@H]2c3cccc4c3c(cn4C)C[C@H]21` [MESULERGINE], for which the Ki in test [2] and in test [1] was 1 µM in each case.
